From ChEMBL document CHEMBL3727364, “Resorcinol n-aryl amide compounds, for use as pyruvate dehydrogenase kinase inhibitors” (2015)

Key:
[1] = target: Pyruvate dehydrogenase kinase (Homo sapiens, UniProt Q15119+Q15120+Q16654+Q15118); test: Inhibition of pyruvate dehydrogenase kinase in human PC3 cells incubated for 90 mins by phospho(Ser293)E1alpha MSP ELISA method; assay type: cell-based; conditions: pc-3
[2] = target: [Pyruvate dehydrogenase (acetyl-transferring)] kinase isozyme 1, mitochondrial (Homo sapiens, UniProt Q15118); test: Binding affinity to pyruvate dehydrogenase kinase 1 (unknown origin) incubated for 90 mins by VER-00160364 probe based fluorescence polarization assay
Sequence of [Pyruvate dehydrogenase (acetyl-transferring)] kinase isozyme 1, mitochondrial (Q15118 whole entry): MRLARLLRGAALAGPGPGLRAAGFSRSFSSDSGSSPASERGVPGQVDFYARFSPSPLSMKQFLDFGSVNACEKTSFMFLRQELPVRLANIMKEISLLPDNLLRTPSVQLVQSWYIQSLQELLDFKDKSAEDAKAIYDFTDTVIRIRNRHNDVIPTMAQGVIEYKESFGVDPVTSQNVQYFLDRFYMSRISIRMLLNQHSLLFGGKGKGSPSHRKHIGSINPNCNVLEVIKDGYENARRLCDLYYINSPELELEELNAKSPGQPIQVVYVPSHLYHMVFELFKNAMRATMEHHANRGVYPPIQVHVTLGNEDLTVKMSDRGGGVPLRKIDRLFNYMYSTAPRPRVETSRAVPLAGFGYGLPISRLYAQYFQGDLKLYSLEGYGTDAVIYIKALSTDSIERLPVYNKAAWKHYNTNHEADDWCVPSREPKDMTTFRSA

IC50 [1]	IC50 [2]	SMILES
0.1 µM	–	Cc1cnc(Cl)nc1-c1ccc(N(Cc2ccc(CNC(=O)c3cccs3)cc2)C(=O)c2ccc(O)cc2O)cc1
0.1 µM	–	Cc1cnc(Cl)nc1-c1ccc(N(Cc2cccc(Cl)c2)C(=O)c2ccc(O)cc2O)cc1
0.1 µM	–	Cc1cnc(Cl)nc1-c1ccc(N(Cc2ccc(CNC(=O)[C@H](C)NC(=O)OCc3ccccc3)cc2)C(=O)c2ccc(O)cc2O)cc1
0.1 µM	–	Cc1cnc(Cl)nc1-c1ccc(N(Cc2ccc(CNC(=O)C3CCC3)cc2)C(=O)c2ccc(O)cc2O)cc1
1 µM	0.01 µM	Cc1cc(S(=O)(=O)NCc2cccs2)cnc1-c1ccc(N(Cc2cccnc2)C(=O)c2ccc(O)cc2O)cc1
1 µM	–	Cc1cc(S(=O)(=O)NCc2cccs2)cnc1-c1ccc(N(Cc2cnsc2)C(=O)c2ccc(O)cc2O)cc1
1 µM	–	Cc1cnc(Cl)nc1-c1ccc(N(Cc2cccc(OCCN(C)C)c2)C(=O)c2ccc(O)cc2O)cc1
1 µM	0.01 µM	Cc1cnc(Cl)nc1-c1ccc(N(Cc2cccnc2)C(=O)c2ccc(O)cc2O)cc1
1 µM	–	Cc1cnc(Cl)nc1-c1ccc(N(Cc2cccc(CN3CCCCC3)c2)C(=O)c2ccc(O)cc2O)cc1
1 µM	–	Cc1cnc(Cl)nc1-c1ccc(N(Cc2cccc(CN(C)C)c2)C(=O)c2ccc(O)cc2O)cc1
0.1 µM	–	Cc1cnc(Cl)nc1-c1ccc(N(Cc2ccc(CN3CCC(F)(F)C3)cc2)C(=O)c2ccc(O)cc2O)cc1
0.1 µM	–	COC1CCN(Cc2ccc(CN(C(=O)c3ccc(O)cc3O)c3ccc(-c4nc(Cl)ncc4C)cc3)cc2)C1 (centres undefined)
–	0.1 µM	Cc1cnc(C#N)nc1-c1ccc(N(Cc2ccccc2)C(=O)c2ccc(O)cc2O)cc1

Further lines, the compound ahead of its results:

SMILES	IC50 [1]	IC50 [2]
COc1ccc(CN(C)C(=O)c2ccc(N(Cc3cc(C)no3)C(=O)c3cc(Cl)c(O)cc3O)cc2)cc1	1 µM	0.1 µM
CN(Cc1ccc2nccnc2c1)C(=O)c1ccc(N(Cc2ccsc2)C(=O)c2ccc(O)cc2O)cc1	1 µM	0.01 µM
Cc1cc(S(=O)(=O)NCc2cccnc2)cnc1-c1ccc(N(Cc2ccccc2)C(=O)c2cc(Cl)c(O)cc2O)cc1	1 µM	0.1 µM
CCc1cnc(C)nc1-c1ccc(N(Cc2ccsc2)C(=O)c2ccc(O)cc2O)cc1	1 µM	–
CCN(CC)CCOc1ccc(CN(C(=O)c2ccc(O)cc2O)c2ccc(-c3nc4ccccc4cc3C)cc2)cc1	1 µM	–
Cc1cc2ccccc2nc1-c1ccc(N(Cc2ccc(OCCN3CCCC3)cc2)C(=O)c2ccc(O)cc2O)cc1	1 µM	–
Cc1cc(C(=O)N(Cc2ccccc2)c2ccc(C(=O)N(C)C)cc2)c(O)cc1O	1 µM	–
Cc1cc(S(=O)(=O)N2CCOCC2)cnc1-c1ccc(N(Cc2ccsc2)C(=O)c2ccc(O)cc2O)cc1	1 µM	0.1 µM
Cc1cnc(Cl)nc1-c1ccc(N(Cc2cccc(OCCN3CCOCC3)c2)C(=O)c2ccc(O)cc2O)cc1	1 µM	–
Cc1cc(S(=O)(=O)N2CC(F)(F)C2)cnc1-c1ccc(N(Cc2ccccc2)C(=O)c2ccc(O)cc2O)cc1	10 µM	0.1 µM
Cc1cc(C(=O)N(Cc2ccccc2)c2ccc(C(=O)N(C)Cc3ccc4nccnc4c3)cc2)c(O)cc1O	1 µM	–
CN(Cc1ccc2ccccc2c1)C(=O)c1ccc(N(Cc2cccnc2)C(=O)c2ccc(O)cc2O)cc1	1 µM	0.01 µM
Cc1cc(S(=O)(=O)NCc2ccccc2)cnc1-c1ccc(N(Cc2cccnc2)C(=O)c2ccc(O)cc2O)cc1	1 µM	0.01 µM
COc1cnc(Cl)nc1-c1ccc(N(Cc2ccccc2)C(=O)c2cc(Cl)c(O)cc2O)cc1	0.1 µM	0.1 µM
Cc1cc(S(=O)(=O)NCc2ccccn2)cnc1-c1ccc(N(Cc2ccsc2)C(=O)c2cc(Cl)c(O)cc2O)cc1	1 µM	–
COc1cnc(Cl)nc1-c1ccc(N(Cc2cnsc2)C(=O)c2ccc(O)cc2O)cc1	1 µM	–
COc1cnc(Cl)nc1-c1ccc(N(Cc2cccnc2)C(=O)c2ccc(O)cc2O)cc1	1 µM	0.01 µM
COC(=O)c1nc(-c2ccc(N(Cc3ccsc3)C(=O)c3ccc(O)cc3O)cc2)c2ccccc2n1	1 µM	0.1 µM
Cc1cc(S(=O)(=O)N2CCC(F)(F)CC2)cnc1-c1ccc(N(Cc2cccnc2)C(=O)c2ccc(O)cc2O)cc1	–	0.01 µM
Cc1c(Cl)ncc2cc(-c3ccc(N(Cc4cccnc4)C(=O)c4ccc(O)cc4O)cc3)ccc12	–	1 µM
Nc1nccc(-c2ccc(N(Cc3cccnc3)C(=O)c3ccc(O)cc3O)cc2)n1	–	1 µM
Cc1cc(S(=O)(=O)N2CCC(F)(F)CC2)cnc1-c1ccc(N(Cc2ccsc2)C(=O)c2ccc(O)cc2O)cc1	–	1 µM
CNc1nccc(-c2ccc(N(Cc3ccccc3)C(=O)c3ccc(O)cc3O)cc2)n1	–	10 µM
COc1ccc(-c2ccc(N(Cc3cccnc3)C(=O)c3ccc(O)cc3O)cc2)c(Cl)c1	–	1 µM
